Test results published in ChEMBL document CHEMBL1125987, “C8-substituted derivatives of 2-(dipropylamino)tetralin: Palladium-catalyzed synthesis and interactions with 5-HT1A-receptors” (Bioorg Med Chem Lett, 1991).
pKi: −log10 of the molar value.

Key:
[1] = molecular target: T1, 5-hydroxytryptamine receptor 1A (Rattus norvegicus, UniProt P19327); assay: (§1) Inhibition of [3H]- 8-OH-DPAT binding to 5-HT1A-receptor from rat cerebral cortex membranes; assay type: cell membranes, Membrane
T1 sequence (P19327 whole entry): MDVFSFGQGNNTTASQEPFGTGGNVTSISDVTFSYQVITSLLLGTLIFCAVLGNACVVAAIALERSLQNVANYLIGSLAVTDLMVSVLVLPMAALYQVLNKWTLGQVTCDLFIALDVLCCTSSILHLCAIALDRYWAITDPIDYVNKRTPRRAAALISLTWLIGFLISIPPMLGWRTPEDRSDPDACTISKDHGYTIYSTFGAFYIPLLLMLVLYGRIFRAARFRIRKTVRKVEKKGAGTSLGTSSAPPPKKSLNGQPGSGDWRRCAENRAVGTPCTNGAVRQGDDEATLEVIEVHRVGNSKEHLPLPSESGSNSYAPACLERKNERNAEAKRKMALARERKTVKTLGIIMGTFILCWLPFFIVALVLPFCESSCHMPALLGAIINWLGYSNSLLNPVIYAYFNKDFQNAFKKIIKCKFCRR

[2] = molecular target: T2, 5-hydroxytryptamine receptor 1A (Rattus norvegicus) (UniProt P19327); assay: as §1; assay type: cell membranes; details: Membrane
T2 sequence (whole entry): T1 sequence (P19327 whole entry)

Rattus norvegicus [3] = assay: Agonism to 5-HT1A receptor was measured by the accumulation of DOPA in striatum of non pretreated rats subcutaneously at 0.32 um/Kg; assay type: functional
Rattus norvegicus [4] = assay: (§2) In vivo inhibition of L-uM/Kg; assay type: functional
Rattus norvegicus [5] = assay: Agonism to 5-HT1A receptor was measured by the accumulation of DOPA in limbic region of non pretreated rats subcutaneously at 0.32 um/Kg; assay type: functional, Limbic system
Rattus norvegicus [6] = assay: as §2; assay type: functional; remark: listed apart in the source
[7] = molecular target: T2, 5-hydroxytryptamine receptor 1A (Rattus norvegicus); assay: Compound evaluated for inhibiting the binding of [3H]- 8-OH-DPAT to 5-HT1A-receptor from cerebral cortex membranes of rat measured as Hill coefficient; assay type: tissue-based; details: Membrane

Structure (SMILES)	pKi [1]	Hill coefficient [2]	Activity (Rattus norvegicus [3])	Activity (Rattus norvegicus [4])	Activity (Rattus norvegicus [5])	Activity (Rattus norvegicus [6])	Hill coefficient [7]
CCCN(CCC)C1CCc2cccc(C(=O)O)c2C1 (racemic)	< 6.52	–	–	–	–	–	–
CCCN(CCC)[C@@H]1CCc2ccccc2C1	7.77	0.85	–	–	–	–	–
CCCN(CCC)[C@@H]1CCc2cccc(C(C)=O)c2C1	8.74	–	1101 ng (g of tissue)-1	111 ng (g of tissue)-1	399 ng (g of tissue)-1	62.1 ng (g of tissue)-1	0.96
CCCN(CCC)[C@H]1CCc2cccc(O)c2C1	–	0.86	1136 ng (g of tissue)-1	112 ng (g of tissue)-1	445 ng (g of tissue)-1	55.8 ng (g of tissue)-1	–
CCCN(CCC)[C@@H]1CCc2cccc(C)c2C1	7.47	1.13	–	–	–	–	–
CCCN(CCC)[C@@H]1CCc2cccc(OC)c2C1	8.82	1.11	–	–	–	–	–
CCCN(CCC)[C@H]1CCc2cccc(C(=O)OC)c2C1	8.77	–	–	–	–	–	1.01
CCCN(CCC)[C@@H]1CCc2cccc(OS(=O)(=O)C(F)(F)F)c2C1	8.42	0.79	–	–	–	–	–
CCCN(CCC)[C@H]1CCc2cccc(-c3ccccc3)c2C1	7.62	1.04	–	–	–	–	–
CCCN(CCC)[C@@H]1CCc2cccc(C(=O)OC)c2C1	8.37	–	–	–	–	–	0.9
CCCN(CCC)[C@H]1CCc2cccc(OS(=O)(=O)C(F)(F)F)c2C1	8.02	0.83	–	–	–	–	–
CCCN(CCC)[C@@H]1CCc2cccc(-c3ccccc3)c2C1	8.11	1	–	–	–	–	–
CCCN(CCC)[C@@H]1CCc2cccc(O)c2C1	–	0.97	1280 ng (g of tissue)-1	102 ng (g of tissue)-1	414 ng (g of tissue)-1	51.2 ng (g of tissue)-1	–
CCCN(CCC)[C@H]1CCc2cccc(C)c2C1	7.21	1.04	–	–	–	–	–
CCCN(CCC)[C@H]1CCc2ccccc2C1	7.25	0.83	–	–	–	–	–
CCCN(CCC)[C@H]1CCc2cccc(OC)c2C1	8.55	0.96	–	–	–	–	–
CCCN(CCC)[C@H]1CCc2cccc(C(C)=O)c2C1	9.15	0.71	1098 ng (g of tissue)-1	89 ng (g of tissue)-1	365 ng (g of tissue)-1	58.5 ng (g of tissue)-1	–
